The target in assay [1] is T1, TYK2-JH2 (aa 575-869, in-house) protein (Homo sapiens, UniProt P29597).
T1 construct: TYK2-JH2 (aa 575-869, in-house) protein; made in house
In words: TYK2-JH2 biochemical assay (HTRF probe displacement). Format: binding. The conditions noted are these: Biochemical assay; read-out: TYK2-JH2 IC50. An outline of the steps:
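HTRF probe-displacement format: compound dilutions (10 points, 5-fold, from 500 uM in DMSO at 500×) were combined with 0.2 nM TYK2-JH2 protein for 0.5 h at room temperature in HEPES pH 7.5 buffer with MgCl2, BSA, DTT and Brij-35. Percent inhibition came from the 615/665 nm fluorescence ratio, fitted to a four-parameter logistic for IC50.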
In general terms: Time-resolved FRET reads energy transfer from a long-lived donor to a nearby acceptor.

In assay [2] the test system is JAK2, TYK2/p-STAT4 (Tyr693) activated by IL-12 in NK-92 cell line. Description: IL-12-JAK2, TYK2/p-STAT4 (Tyr693) inhibition IC50 cellular assay. In kind it is cell-based. The conditions noted are these: for pIC50: read-out: pSTAT4/IL-12 IC50; for Selectivity fold (TYK2/JAK2): pSTAT5/GM-CSF IC50 vs pSTAT4/IL-12 IC50. An outline of the steps:
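p-STAT4 (Tyr693) in lysates was measured by AlphaLISA SureFire Ultra after a 30 min IL-12 challenge (40 ng/ml final) at 37° C. Overnight-starved, IL-2-free NK-92 cells had been pretreated 1 h with compound at 10000 to 0.61 nM (4-fold, 8 points). IC50 values came from four-parameter logistic fitting.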

Assay [3] has as its system pSTAT5/GM-CSF. Description: pSTAT5/GM-CSF cellular assay (JAK2 selectivity). As to conditions: for Selectivity fold (TYK2/JAK2): pSTAT5/GM-CSF IC50 over pSTAT4/IL-12 IC50. In kind it is cell-based.

pIC50: −log10 of the molar value. Where two headings read alike, the source gives them in different places. Where only a bound is given, the exact number is not on record here.

T1 sequence (P29597 575-869): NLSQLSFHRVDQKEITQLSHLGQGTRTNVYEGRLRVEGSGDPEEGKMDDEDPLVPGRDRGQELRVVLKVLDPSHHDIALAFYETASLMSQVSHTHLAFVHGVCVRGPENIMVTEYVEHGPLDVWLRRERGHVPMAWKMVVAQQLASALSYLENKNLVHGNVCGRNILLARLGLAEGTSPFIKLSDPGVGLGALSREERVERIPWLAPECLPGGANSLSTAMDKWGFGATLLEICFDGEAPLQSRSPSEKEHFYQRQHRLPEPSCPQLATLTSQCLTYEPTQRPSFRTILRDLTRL

For the compound `CO[C@H](C)COc1cc(Nc2cc(NC(C)=O)ncc2-c2cc(C)n(C)n2)nc(S(C)(=O)=O)c1` [Example N6, (R)-N-(5-(1,5-dimethyl-1H-pyrazol-3-yl)-4-((4-(2-methoxypropoxy)-6-(methylsulfonyl)pyridin-2-yl)amino)pyridin-2-yl)acetamide], the pIC50 was 10.41 in assay [1]; 9.56 in assay [2] (NK92, Cellular assay); less than 5.00 in assay [3]. In assay [3], the “Selectivity fold (TYK2/JAK2)” value is more than 36496 fold.

On to `COCCOc1cc(Nc2cc(NC(C)=O)ncc2-c2ccc(C(C)(C)O)cn2)cc(S(C)(=O)=O)c1` [Example H15, N-(5-(2-hydroxypropan-2-yl)-4′-((3-(2-methoxyethoxy)-5-(methylsulfonyl)phenyl)amino)-[2,3′-bipyridin]-6′-yl)acetamide], for which the pIC50 is 10.54 in assay [1]; 8.31 in assay [2] (NK92, Cellular assay); less than 5.00 in assay [3]. The “Selectivity fold (TYK2/JAK2)” value in assay [2] (Cellular assay) is more than 2044 fold.

For `CC(=O)Nc1cc(Nc2cc(OC(C)C)cc(S(C)(=O)=O)n2)c(-c2ccc3c(n2)OCCO3)cn1` [Example Q1, N-(5-(2,3-dihydro-[1,4]dioxino[2,3-b]pyridin-6-yl)-4-((4-isopropoxy-6-(methylsulfonyl)pyridine-2-yl)amino)pyridin-2-yl)acetamide], the pIC50 in assay [1] was 10.64; in assay [2] (NK92, Cellular assay) it was 8.75; in assay [3] it was less than 5.00. In addition, the “Selectivity fold (TYK2/JAK2)” value in assay [3] is listed as more than 5681 fold.

Turning to `CC(=O)Nc1cc(Nc2cccc(S(C)(=O)=O)n2)c(C2=NC(C)(C)CS2)cn1` [Example R1, N-(5-(4,4-dimethyl-4,5-dihydrothiazol-2-yl)-4-((6-(methylsulfonyl)pyridin-2-yl)amino)pyridin-2-yl)acetamide], the pIC50 in assay [1] was 10.39; in assay [2] (NK92, Cellular assay), 8.66; in assay [3], less than 5.00. Besides, in assay [3], the “Selectivity fold (TYK2/JAK2)” value is reported as more than 4587 fold.

Consider `CC(=O)Nc1cc(Nc2cc(C3COCCO3)cc(S(C)(=O)=O)n2)c(-c2ccc3c(n2)OCC(C)(C)O3)cn1` (racemic) [Example Q51, (S/R)—N-(4-((4-(1,4-dioxan-2-yl)-6-(methylsulfonyl)pyridin-2-yl)amino)-5-(2,2-dimethyl-2,3-dihydro-[1,4]dioxino[2,3-b]pyridin-6-yl)pyridin-2-yl)acetamide], for which the pIC50 in assay [1] was 10.47; in assay [2] (Cellular assay), 9.01; in assay [3] it was less than 5.00. In addition, the “Selectivity fold (TYK2/JAK2)” value in assay [3] is more than 10214 fold.

As to `CC(=O)Nc1cc(Nc2cc(C)cc(S(C)(=O)=O)n2)c(-c2ccn(C3CCOC3)n2)cn1` (centres unmarked) [Example M31, N-(4-((4-methyl-6-(methylsulfonyl)pyridin-2-yl)amino)-5-(1-(tetrahydrofuran-3-yl)-1H-pyrazol-3-yl)pyridin-2-yl)acetamide], the pIC50 in assay [1] is 10.51; in assay [2] (NK92, Cellular assay), 9.08; in assay [3] it was 5.85. The “Selectivity fold (TYK2/JAK2)” value in assay [3] is given as 1714 fold.

Regarding `COCc1ccc(-c2cnc(NC(C)=O)cc2Nc2cccc(S(C)(=O)=O)c2)nc1` [Example E1, N-(5-(methoxymethyl)-4′-((3-(methylsulfonyl)phenyl)amino)-[2,3′-bipyridin]-6′-yl)acetamide], the pIC50 in assay [1] was 10.66; in assay [2] (NK92, Cellular assay), 8.34; in assay [3], less than 5.00. The “Selectivity fold (TYK2/JAK2)” value in assay [2] (Cellular assay) is reported as more than 2197 fold.

In the case of `CC(=O)Nc1cc(Nc2cncc(S(C)(=O)=O)n2)c(-c2ccc3c(n2)OC(C)(C)CO3)cn1` [Example Q28, N-(5-(3,3-dimethyl-2,3-dihydro-[1,4]dioxino[2,3-b]pyridine-6-yl)-4-((6-(methylsulfonyl)pyrazin-2-yl)amino)pyridine-2-yl)acetamide], the pIC50 in assay [1] was 10.59; in assay [2] (NK92, Cellular assay), 9.48; in assay [3] it was less than 5.00. Further, the “Selectivity fold (TYK2/JAK2)” value in assay [3] is listed as more than 30395 fold.

For `CC(=O)Nc1cc(Nc2cccc(S(C)(=O)=O)n2)c(-c2cccnn2)cn1` [Example A24, N-(4-((6-(methylsulfonyl)pyridin-2-yl)amino)-5-(pyridazin-3-yl)pyridin-2-yl)acetamide], the pIC50 in assay [1] was 10.57; in assay [2] (NK92, Cellular assay), 8.73; in assay [3], less than 5.00. Moreover, the “Selectivity fold (TYK2/JAK2)” value in assay [2] (Cellular assay) is reported as more than 5405 fold.

Consider `CO[C@H]1C[C@H](c2cc(Nc3cc(NC(C)=O)ncc3-c3ccc4c(n3)OCC(C)(C)O4)nc(S(C)(=O)=O)c2)C1` [Example Q54], for which the pIC50 in assay [1] is 10.43; in assay [2] (NK92, Cellular assay) it was 9.25; in assay [3], 5.40. In assay [3], the “Selectivity fold (TYK2/JAK2)” value was 7116 fold.

On to `CC(=O)Nc1cc(Nc2cc(OC[C@H](C)O)cc(S(C)(=O)=O)c2)c(-c2ccn(C)n2)cn1` [Example J55, (S)-N-(4-((3-(2-hydroxypropoxy)-5-(methylsulfonyl)phenyl)amino)-5-(1-methyl-1H-pyrazol-3-yl)pyridin-2-yl)acetamide], for which the pIC50 in assay [1] was 10.48; in assay [2] (NK92, Cellular assay) it was 7.94; in assay [3], less than 5.00. For the same compound, in assay [3], the “Selectivity fold (TYK2/JAK2)” value is given as more than 878 fold.

Take `COCc1ccc(-c2cnc(NC(C)=O)cc2Nc2cc(OC[C@@H](C)OC)cc(S(C)(=O)=O)n2)nc1` [Example E3, (R)-N-(5-(methoxymethyl)-4′-((4-(2-methoxypropoxy)-6-(methylsulfonyl)pyridin-2-yl)amino)-[2,3′-bipyridin]-6′-yl)acetamide]: the pIC50 was 10.46 in assay [1]; 9.19 in assay [2] (NK92, Cellular assay); less than 5.00 in assay [3]. Moreover, the “Selectivity fold (TYK2/JAK2)” value in assay [2] (Cellular assay) was more than 15503 fold.

For `COCc1cc(Nc2cc(NC(C)=O)ncc2-c2ccn(C)n2)cc(S(C)(=O)=O)c1` [Example J34, N-(4-((3-(methoxymethyl)-5-(methylsulfonyl)phenyl)amino)-5-(1-methyl-1H-pyrazol-3-yl)pyridin-2-yl)acetamide], the pIC50 in assay [1] is 10.17; in assay [2] (NK92, Cellular assay), 8.01; in assay [3] it was less than 5.00. Besides, the “Selectivity fold (TYK2/JAK2)” value in assay [3] is on record as more than 1031 fold.

Consider `CC(=O)Nc1cc(Nc2cc(OCC(C)O)cc(S(C)(=O)=O)n2)c(-c2cc(N3CCOCC3)n(C)n2)cn1` (centres unmarked) [Example O3, N-(4-((4-(2-hydroxypropoxy)-6-(methylsulfonyl)pyridin-2-yl)amino)-5-(1-methyl-5-morpholino-1H-pyrazol-3-yl)pyridin-2-yl)acetamide], for which the pIC50 in assay [1] is 10.51; in assay [2] (NK92, Cellular assay), 8.16; in assay [3], 5.08. In addition, in assay [3], the “Selectivity fold (TYK2/JAK2)” value is 2109 fold.

In the case of `CC(=O)Nc1cc(Nc2cc(OCC(C)O)cc(S(C)(=O)=O)n2)c(-c2ccn(C)n2)cn1` (centres unmarked) [Example J24, N-(4-((4-(2-hydroxypropoxy)-6-(methylsulfonyl)pyridin-2-yl)amino)-5-(1-methyl-1H-pyrazol-3-yl)pyridin-2-yl)acetamide], the pIC50 in assay [1] was 10.55; in assay [2] (NK92, Cellular assay), 8.22; in assay [3] it was less than 5.00. Moreover, the “Selectivity fold (TYK2/JAK2)” value in assay [3] is on record as more than 1652 fold.

For the compound `CC(=O)Nc1cc(Nc2cc(C3CC3)cc(S(C)(=O)=O)n2)c(-c2ccc(F)cn2)cn1` [Example F25, N-(4′-((4-cyclopropyl-6-(methylsulfonyl)pyridin-2-yl)amino)-5-fluoro-[2,3′-bipyridin]-6′-yl)acetamide], the pIC50 is 10.54 in assay [1]; 9.35 in assay [2] (NK92, Cellular assay); less than 5.00 in assay [3]. Also, the “Selectivity fold (TYK2/JAK2)” value in assay [2] (Cellular assay) was more than 22421 fold.

With `COc1ccc(-c2cnc(NC(C)=O)cc2Nc2cc(OC(C)C)cc(S(C)(=O)=O)n2)nn1` [Example A26, N-(4-((4-isopropoxy-6-(methylsulfonyl)pyridin-2-yl)amino)-5-(6-methoxypyridazin-3-yl)pyridin-2-yl)acetamide], the pIC50 is 10.49 in assay [1]; 9.39 in assay [2] (NK92, Cellular assay); less than 5.00 in assay [3]. Besides, the “Selectivity fold (TYK2/JAK2)” value in assay [2] (Cellular assay) is given as more than 24691 fold.

In the case of `CC(=O)Nc1cc(Nc2cc(OCCO)cc(S(C)(=O)=O)n2)c(-c2ccc(OC3CCOC3)cn2)cn1` (centres unmarked) [Example B22, N-(4′-((4-(2-hydroxyethoxy)-6-(methylsulfonyl)pyridin-2-yl)amino)-5-((tetrahydrofuran-3-yl)oxy)-[2,3′-bipyridin]-6′-yl)acetamide], the pIC50 in assay [1] is 10.60; in assay [2] (NK92, Cellular assay), 7.90; in assay [3] it was 5.60. Besides, the “Selectivity fold (TYK2/JAK2)” value in assay [2] (Cellular assay) came to 197 fold.

With `CCOc1cc(Nc2cc(NC(C)=O)ncc2-c2ccn(CC)n2)nc(S(C)(=O)=O)c1` [Example M18, N-(4-((4-ethoxy-6-(methylsulfonyl)pyridin-2-yl)amino)-5-(1-ethyl-1H-pyrazol-3-y)pyridin-2-yl)acetamide], the pIC50 in assay [1] was 10.59; in assay [2] (NK92, Cellular assay), 9.00; in assay [3], less than 5.00. Besides, the “Selectivity fold (TYK2/JAK2)” value in assay [3] was more than 10111 fold.

As to `CCOc1cc(Nc2cc(NC(C)=O)ncc2-c2ccc(F)cn2)nc(S(C)(=O)=O)c1` [Example F19, N-(4′-((4-ethoxy-6-(methylsulfonyl)pyridin-2-yl)amino)-5-fluoro-[2,3′-bipyridin]-6′-yl)acetamide], the pIC50 in assay [1] is 10.44; in assay [2] (NK92, Cellular assay), 8.51; in assay [3] it was less than 5.00. In addition, the “Selectivity fold (TYK2/JAK2)” value in assay [2] (Cellular assay) was more than 3267 fold.

These data come from patent US20240043435A1, “TYK-2 INHIBITOR” (BEIGENE, LTD., priority 2020, published 2024).
